What all share (format): cell-based
For experiment [1], the system named is HIF-1 Alpha. Description: ELISA of HIF-1 Alpha protein in RGC-5 cells under H2O2 oxidative stress. Particulars: 100 μM SAC 15-minute pre-treatment, 500 μM H2O2 24 hours; control 1254.39±116.03, H2O2 1874.72±133.46; n=6. On the procedure: (§1) In the enzyme-linked immunosorbent assay (ELISA), the cells (2.5×10^4 in each well) were plated into 96-well plates. Each well contains 200 μl of DMEM (control) without or with H2O2. Next, the cells were incubated at 37° C. for 1 day and then shifted to serum free medium for the following day. In order to stimulate oxidative stress, 500 μM H2O2 (Sigma-Aldrich 18304/k0250, St Louis, Mo., USA) was then added for 24 hours as described elsewhere. Depending on the experimental protocol, SAC or vehicle was added to some samples 15 minutes before adding H2O2. […] Total protein was determined using a bicinchoninic acid protein kit (Thermo Fisher Scientific Inc., IL, U.S.A.). The HIF-1 Alpha/VEGF/MMP-9 levels in the cells/medium were measured using various ELISA kits, namely HIF-1 Alpha (Uscn Life Science Inc., Wuhan 430056, China); VEGF-A (BMS277/2, Bender […], Austria) and MMP-9 Duoset (D911, R&D, Minneapolis, Minn., U.S.A.). […] The HIF-1 Alpha/VEGF/MMP-9 concentration of each sample was determined by constructing a standard curve using 100 μl of sample diluent containing various amounts of HIF-1 Alpha/VEGF/MMP-9 pure protein (0-1000 pg/ml). […] The absorbance (optical intensity, O.D.) was detected at 450 nm by spectrophotometer (ELx800, Biotek, Winooski, Vt., U.S.A.). […]

Experiment [2] deals with VEGF. Nature of the experiment: ELISA of VEGF protein in RGC-5 cells under H2O2 oxidative stress. The following applies: 100 μM SAC 15-minute pre-treatment, 500 μM H2O2 24 hours; control 91.91±21.72, H2O2 250.55±39.63; n=6. On the procedure:
as §1

Experiment [3] has as its system MMP-9. Nature of the experiment: ELISA of MMP-9 protein in RGC-5 cells under H2O2 oxidative stress. Particulars: 100 μM SAC 15-minute pre-treatment, 500 μM H2O2 24 hours; control 29.33±4.93, H2O2 100.70±18.80; n=6. How it is done: as §1

As for `C=CCSC[C@H](N)C(=O)O` [SAC, S-allyl L-cysteine], the “HIF-1 Alpha protein level (ELISA)” value in experiment [1] stood at 1256.47 ± 157.62 pg/mL. The “VEGF protein level (ELISA)” value in experiment [2] was found to be 121.61 ± 12.54 pg/mL. Moreover, the “MMP-9 protein level (ELISA)” value in experiment [3] was found to be 52.55 ± 2.72 pg/mL.

The values are drawn from patent publication US8569372B2, “Method for preventing or treating a disease, disorder or condition induced by retina ischemia” (priority 2011, dated 2013).
